According to PubChem BioAssay (NCI):
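Step 1: Grow cells in 96-well plates. Step 2: Expose to compound for 48 hours at 5 concentrations. Step 3: Interpolate endpoints linearly; if unreached, use highest concentration. GI50: concentration for 50% inhibition of growth. TGI denotes the concentration required for complete inhibition of growth.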

How the values were obtained:
Assay in all cases: inhibition of tumour cell growth, NCI panel, 48 h
[1] = test system: UACC-62 melanoma
[2] = test system: COLO 205 colon
[3] = test system: NCI-H226 lung
[4] = test system: SK-MEL-2 melanoma
[5] = test system: A498 renal
[6] = test system: HCT-116 colon
[7] = test system: EKVX NSCLC
[8] = test system: T-47D breast
[9] = test system: A549 NSCLC
[10] = test system: M19-MEL melanoma

| SMILES | TGI [1] [µM] | TGI [2] [µM] | TGI [3] [µM] | TGI [4] [µM] | TGI [5] [µM] | TGI [6] [µM] | TGI [7] [µM] | TGI [8] [µM] | TGI [9] [µM] | TGI [10] [µM] | GI50 [1] [µM] | GI50 [2] [µM] | GI50 [3] [µM] | GI50 [4] [µM] | GI50 [6] [µM] | GI50 [7] [µM] | GI50 [10] [µM] | GI50 [9] [µM] |
| --- | --- | --- | --- | --- | --- | --- | --- | --- | --- | --- | --- | --- | --- | --- | --- | --- | --- | --- |
| CSc1nc(C)c2c(n1)N(c1ccc(Cl)cc1)CC2 | > 100 | > 100 | > 100 | > 100 | > 100 | > 100 | > 100 | > 100 | > 100 |  |  |  |  |  |  |  |  |  |
| CCCCCCCCCCCCC1N=C(N)N2CCCC2=C1C(=O)OC (configuration not stated) | 3.36 | 4.17 | 48.8 | 3.64 | 47.1 | 3.34 | 35.4 | 3.73 | 36.2 |  |  |  |  |  |  |  |  |  |
| COc1cccc(CCCNC(=O)Cc2ccccc2CO)c1 | > 100 | > 100 | > 100 | > 100 | > 100 | > 100 | > 100 | > 100 | > 100 |  |  |  |  |  |  |  |  |  |
| Cc1ncc(CSC(=N)N)n1Cc1ccccc1 | > 100 | > 100 | > 100 | > 100 | > 100 | > 100 | > 100 | > 100 | > 100 |  |  |  |  |  |  |  |  |  |
| C/C(=N\NC(=S)N1CCOCC1)c1nc2ncccc2[nH]1 | > 100 | > 100 | > 100 | 69.4 | > 100 | > 100 | > 100 | > 100 | > 100 |  |  |  |  |  |  |  |  |  |
| O=C(O)CCC1NC(/C(=C/c2ccccc2O)NC(=O)c2ccccc2)OC1=O (configuration not stated) | > 100 | > 100 | > 100 | > 100 | > 100 | > 100 | > 100 | > 100 | > 100 |  |  |  |  |  |  |  |  |  |
| COC(=O)C(NC(=O)c1ccccc1)C(c1c(O)cc(O)cc1O)P(=O)(OC)OC (configuration not stated) | > 100 | > 100 | > 100 | > 100 | > 100 | > 100 | > 100 |  | > 100 | > 100 |  |  |  |  |  |  |  |  |
| Cn1c(NC(=O)NC23CC4CC(CC(C4)C2)C3)nc2ccccc21 | > 100 | > 100 | > 100 | > 100 |  | > 100 | > 100 |  | > 100 | > 100 |  |  |  |  |  |  |  |  |
| S=c1[nH]n2c(COc3cc(Cl)c(OCc4nnc5sc(=S)[nH]n45)cc3Cl)nnc2s1 | 83.9 | > 100 | > 100 | > 100 | > 100 | > 100 | > 100 | > 100 | > 100 |  |  |  |  |  |  |  |  |  |
| O=C1c2ccccc2C(=O)c2sc(Nc3cc(Cl)ccc3Cl)nc21 | 6.27 | 34 | 44.7 | 31.6 | 41.9 | 13.7 | 26.7 | 34.3 | 42.2 |  |  |  |  |  |  |  |  |  |
| CCCCCCCc1ccc(-c2nnc(N=Nc3ccc(OCCCCC)cc3)s2)s1 | > 100 | > 100 | > 100 | > 100 | > 100 | > 100 | > 100 | > 100 | > 100 |  |  |  |  |  |  |  |  |  |
| COC(=O)[C@@H]1COC(=O)N1 | > 100 | > 100 | > 100 | > 100 | > 100 | > 100 | > 100 | > 100 | > 100 |  |  |  |  |  |  |  |  |  |
| CSc1nc[nH]c1C(N)=S | > 100 | > 100 | > 100 | > 100 | > 100 | > 100 | > 100 | > 100 | > 100 |  |  |  |  |  |  |  |  |  |
| O=C(c1ccccc1)c1cc(Cl)ccc1NCn1nnc2ccccc21 | > 100 | > 100 | > 100 | > 100 | > 100 |  | > 100 |  | > 100 | > 100 |  |  |  |  |  |  |  |  |
| COc1ccc(C23OCC(Cc4cc(OC)c(OC)cc42)C3CO)cc1OC (configuration not stated) | > 100 | > 100 | > 100 | > 100 | > 100 | > 100 | > 100 | > 100 | > 100 |  |  |  |  |  |  |  |  |  |
| c1cncc([O][Ge]([O]c2cccnc2)([O]c2cccnc2)[O]c2cccnc2)c1 | > 100 | > 100 | > 100 | > 100 |  | > 100 | > 100 |  | > 100 | > 100 | > 100 | > 100 | > 100 | > 100 | > 100 | > 100 | > 100 | > 100 |
| COc1ccc(CC[N+]2(C)COc3cc4oc(=O)cc(C)c4cc3C2)cc1OC (configuration not stated) | > 100 | > 100 | > 100 | > 100 | > 100 | > 100 | > 100 | > 100 | > 100 |  |  |  |  |  |  |  |  |  |
| C=CCOC(=O)N1c2ccc(O)cc2[C@@]23O[C@@]24[C@@H]1C#C/C=C\C#C[C@]3(O)C(=O)C[C@@H]4C | > 100 | > 100 | > 100 | > 100 | > 100 | > 100 | > 100 | > 100 | > 100 |  |  |  |  |  |  |  |  |  |
